Where two headings read alike, the source gives them in different places.

For series [1], the system named is barnyardgrass (Echinochloa crus-galli). Briefly: Test A pre/postemergence. It is filed as in vivo. To be noted: Echinochloa crus-galli, 240 h, read-out: Plant response rating, Barnyardgrass; for pest or weed control at 125 g/ha: 125 g ai/ha; for pest or weed control at 500 g/ha: 500 g ai/ha. Put shortly: (§1)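 After planting in loam and sand, species received test chemical as preemergence soil spray; postemergence spray went on 2–10 cm plants at 1–2 leaves at the same time. Evaluation: visual injury, ~10 d, 0 no effect to 100 complete control.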

Series [2] has as its system crabgrass (Digitaria sanguinalis). Briefly: Test A pre/postemergence. It is filed as in vivo. To be noted: Digitaria sanguinalis, 240 h, read-out: Plant response rating, Crabgrass; for pest or weed control at 125 g/ha: 125 g ai/ha; for pest or weed control at 500 g/ha: 500 g ai/ha. The method, boiled down: as §1
The test system of series [3] is giant foxtail (Setaria faberi). Briefly: Test A pre/postemergence. It counts as in vivo. To be noted: Setaria faberi, 240 h, read-out: Plant response rating, Foxtail, Giant; for pest or weed control at 125 g/ha: 125 g ai/ha; for pest or weed control at 500 g/ha: 500 g ai/ha. Put shortly:
as §1

Series [4] concerns morningglory (Ipomoea spp.). Briefly: Test A pre/postemergence. The following applies: Ipomoea, 240 h, read-out: Plant response rating, Morningglory; for pest or weed control at 125 g/ha: 125 g ai/ha; for pest or weed control at 500 g/ha: 500 g ai/ha. It counts as in vivo. Put shortly:
as §1

Series [5] has as its system redroot pigweed (Amaranthus retroflexus). The experiment in a line: Test A pre/postemergence. It counts as in vivo. To be noted: Amaranthus retroflexus, 240 h, read-out: Plant response rating, Pigweed; for pest or weed control at 125 g/ha: 125 g ai/ha; for pest or weed control at 500 g/ha: 500 g ai/ha. Put shortly:
as §1

In series [6] the test system is velvetleaf (Abutilon theophrasti). Briefly: Test A pre/postemergence. It is filed as in vivo. The following applies: Abutilon theophrasti, 240 h, read-out: Plant response rating, Velvetleaf; for pest or weed control at 125 g/ha: 125 g ai/ha; for pest or weed control at 500 g/ha: 500 g ai/ha. Put shortly: as §1
Series [7] concerns sulfonylurea herbicide-resistant (SU-resistant) catchweed bedstraw (GALAP; Galium aparine). Briefly: Test K postemergence. It counts as in vivo. The following applies: 16 g a.i./ha, 15 days. The protocol: (§2) Seeds of plant species selected from sulfonylurea herbicide-susceptible (SU-susceptible) and sulfonylurea herbicide-resistant (SU-resistant) catchweed bedstraw (GALAP; Galium aparine) and wheat (TRZAW; Triticum aestivum) were treated with postemergence applications of test chemicals formulated in a non-phytotoxic solvent mixture which included a surfactant. Plants were treated at the 2-3 leaf stage and 2 whorl stage for wheat and catchweed bedstraw, respectively. Treated plants and controls were maintained in a controlled growth environment for 15 days after which time all species were compared to controls and visually evaluated. Plant response ratings, summarized in Table K, are based on a scale of 0 to 100 where 0 is no effect and 100 is complete control. A dash (-) response means no test result.

The test system of series [8] is sulfonylurea herbicide-susceptible (SU-susceptible) catchweed bedstraw (GALAP; Galium aparine). The experiment in a line: Test K postemergence. It is filed as in vivo. To be noted: 16 g a.i./ha, 15 days. The protocol:
as §2

Series [9] deals with wheat (TRZAW; Triticum aestivum). The experiment in a line: Test K postemergence. It is filed as in vivo. To be noted: 16 g a.i./ha, 15 days. Here is the method: as §2
Where [10] appears, read: post-emergence, Postemergence, 0 to 100 scale (0 no effect, 100 complete control).
[11] abbreviates: pre-emergence, Preemergence, 0 to 100 scale where 0 is no effect and 100 is complete control, approximately ten days.

Take `COC(=O)c1nc(C(C)C)nc(N)c1Cl` [Compound 110]: the melting point was 100 to 104 °C (dec.). For the same compound, in series [1] (setting [10]), the pest or weed control at 125 g/ha worked out at 0% and the pest or weed control at 500 g/ha turned out to be 10%. Moreover, in series [1] (setting [11]), the pest or weed control at 125 g/ha is 0% and the pest or weed control at 500 g/ha turned out to be 15%. For the same compound, in [2] (setting [10]), the pest or weed control at 125 g/ha is 0% and the pest or weed control at 500 g/ha amounted to 10%. In [2] (setting [11]), the pest or weed control at 125 g/ha worked out at 0% and the pest or weed control at 500 g/ha turned out to be 15%. In series [3] (setting [10]), the pest or weed control at 125 g/ha came to 0% and the pest or weed control at 500 g/ha worked out at 5%. In addition, in series [3] (setting [11]), the pest or weed control at 125 g/ha is 0% and the pest or weed control at 500 g/ha came out at 0%. In series [4] (setting [10]), the pest or weed control at 125 g/ha came out at 70% and the pest or weed control at 500 g/ha stood at 85%. Further, in series [4] (setting [11]), the pest or weed control at 125 g/ha worked out at 0% and the pest or weed control at 500 g/ha was 90%. Further, in [5] (setting [10]), the pest or weed control at 125 g/ha worked out at 55% and the pest or weed control at 500 g/ha came out at 85%. Moreover, in [5] (setting [11]), the pest or weed control at 125 g/ha worked out at 40% and the pest or weed control at 500 g/ha was 65%. Besides, in series [6] (setting [10]), the pest or weed control at 125 g/ha was determined as 40% and the pest or weed control at 500 g/ha came to 65%. Moreover, in series [6] (setting [11]), the pest or weed control at 125 g/ha came to 25% and the pest or weed control at 500 g/ha was 35%.

With `CCOC(=O)c1nc(C(C)C)nc(N)c1Cl` [Compound 108], the melting point was in the range of 102 to 103 °C. In series [1] (setting [10]), the pest or weed control at 125 g/ha stood at 0% and the pest or weed control at 500 g/ha turned out to be 5%. Moreover, in [1] (setting [11]), the pest or weed control at 125 g/ha was found to be 10% and the pest or weed control at 500 g/ha is 15%. In [2] (setting [10]), the pest or weed control at 125 g/ha came out at 0% and the pest or weed control at 500 g/ha was found to be 0%. Also, in [2] (setting [11]), the pest or weed control at 125 g/ha was 0% and the pest or weed control at 500 g/ha is 20%. For the same compound, in series [3] (setting [10]), the pest or weed control at 125 g/ha was determined as 0% and the pest or weed control at 500 g/ha was 10%. For the same compound, in [3] (setting [11]), the pest or weed control at 125 g/ha came to 0% and the pest or weed control at 500 g/ha worked out at 0%. In addition, in series [4] (setting [10]), the pest or weed control at 125 g/ha came out at 70% and the pest or weed control at 500 g/ha was determined as 90%. Besides, in [4] (setting [11]), the pest or weed control at 125 g/ha stood at 0% and the pest or weed control at 500 g/ha was found to be 90%. In series [5] (setting [10]), the pest or weed control at 125 g/ha is 50% and the pest or weed control at 500 g/ha turned out to be 85%. Moreover, in series [5] (setting [11]), the pest or weed control at 125 g/ha was determined as 55% and the pest or weed control at 500 g/ha was found to be 75%. Besides, in series [6] (setting [10]), the pest or weed control at 125 g/ha came out at 35% and the pest or weed control at 500 g/ha was 65%. In series [6] (setting [11]), the pest or weed control at 125 g/ha came out at 10% and the pest or weed control at 500 g/ha came out at 50%.

Turning to `COc1nc(C)nc(NC(=O)NS(=O)(=O)c2ccccc2Cl)n1` [Chlorsulfuron, chlorsulfuron, reference compound], the “Plant response rating (0 to 100 scale)” value came out at 5 in series [7], 100 in [8] and 20 in series [9].

For the compound `NC(=O)c1nc(C2CC2)nc(N)c1Cl` [Compound 85], the melting point lay in the range of 232 to 236 °C. In series [1] (setting [10]), the pest or weed control at 125 g/ha turned out to be 0% and the pest or weed control at 500 g/ha was 0%. In series [1] (setting [11]), the pest or weed control at 125 g/ha is 0% and the pest or weed control at 500 g/ha stood at 0%. In [2] (setting [10]), the pest or weed control at 125 g/ha worked out at 0% and the pest or weed control at 500 g/ha worked out at 0%. Also, in [2] (setting [11]), the pest or weed control at 125 g/ha came out at 0% and the pest or weed control at 500 g/ha turned out to be 5%. Moreover, in series [3] (setting [10]), the pest or weed control at 125 g/ha came out at 0% and the pest or weed control at 500 g/ha was found to be 0%. In series [3] (setting [11]), the pest or weed control at 125 g/ha is 0% and the pest or weed control at 500 g/ha stood at 0%. Further, in series [4] (setting [10]), the pest or weed control at 125 g/ha worked out at 20% and the pest or weed control at 500 g/ha came to 75%. In [4] (setting [11]), the pest or weed control at 125 g/ha turned out to be 0% and the pest or weed control at 500 g/ha worked out at 20%. Further, in [5] (setting [10]), the pest or weed control at 125 g/ha amounted to 75% and the pest or weed control at 500 g/ha turned out to be 90%. Also, in series [5] (setting [11]), the pest or weed control at 125 g/ha was 50% and the pest or weed control at 500 g/ha was 60%. Further, in series [6] (setting [10]), the pest or weed control at 125 g/ha came to 25% and the pest or weed control at 500 g/ha came out at 60%. In series [6] (setting [11]), the pest or weed control at 125 g/ha was 0% and the pest or weed control at 500 g/ha was 10%.

The values are drawn from patent US8802597B2, “Herbicidal pyrimidines” (E I du Pont de Nemours and Company, priority 2003, dated 2014).
